Source: PMC6651555, “Cathepsin L Inhibitors with Activity against the Liver Fluke Identified From a Focus Library of Quinoxaline 1,4-di-N-Oxide Derivatives” (Molecules, 2019)
Entries after “also recorded” stand apart in the source; their conditions may differ.

Tests used:
FhCL1 = target: T1, FhCL1 (Fasciola hepatica, UniProt Q7JNQ9); experiment: FhCL1 inhibition screening, IC50 and slow-binding (fluorogenic substrate Z-VLK-AMC); assay type: biochemical; conditions: read-out: %Inh FhCL1, 10 µM compound, 20 min preincubation, relative to enzyme alone; SD less than 10%
T1 construct: made in house; host or cells: Hansenula polymorpha (yeast)
Description: (§1) Each compound was completely dissolved in dimethylsulfoxide (DMSO) to a concentration of 10 mM to prepare the stock solutions. To evaluate the inhibition of FhCL1 and FhCL3 by quinoxaline 1,4-di-N-oxide derivatives, nanomolar concentrations of each enzyme was incubated with compounds at 10 μM. Briefly, each enzyme and compound were preincubated 20 min in a 96-well plate in 0.1 M sodium phosphate buffer pH 6, 1 mM DTT, and 1 mM EDTA at room temperature. The reaction was initiated by adding 20 μM of substrate and enzyme activity was measured by the increase in aminomethyl coumarin (AMC) fluorescence as peptide substrates were hydrolyzed (Z-VLK-AMC for FhCL1 and Tos-GPR-AMC for FhCL3), at an excitation wavelength of 340 nm and emission wavelength of 440 nm using a spectrofluorometer (Varioskan Thermo, Waltham, MA, USA). Enzyme activity was expressed as RFU/s (relative fluorescence units of AMC released per second). Each compound was tested in triplicate. A control reaction without enzymes was performed to check for the occurrence of non-catalyzed reactions between substrates and inhibitors and a spectrum from 300 to 450 nm wavelength was done for each quinoxaline 1,4-di-N-oxide derivative to verify that none of them had optical activity in the measurement range. The percentage of enzyme inhibition was calculated as 100 − (vi/vo) × 100, where vi and vo correspond to the initial rate of AMC fluorescence increase (RFU/s) with and without inhibitor, respectively.
(§2) To calculate the IC50 values, compounds were incubated with each enzyme at seven different concentrations; 0.625, 1.25, 2.5, 5, 10, 20, and 40 μM. Then, the enzyme activity was measured in a 96-well plate as described before. We plotted initial rates (RFU/s) versus log10 of inhibitor concentrations and obtained the IC50 values by fitting the data to a sigmoid curve. We also carried out slow-binding assays to evaluate the time-dependence of the inhibition. Each compound was incubated at 10 μM with the enzyme for increasing lengths of time; 3 to 120 min and the percentage of inhibition at each time point was determined as described before. We calculated the inhibition percentage of the leader compounds at 10 μM for HsCL1. The enzyme was preincubated for 20 min with the compounds and the activity was measured in a 96-well plate in 400 mM sodium acetate, pH 5.5, with 4 mM EDTA, 8 mM DTT, and 20 μM of substrate Z-VLK-AMC. The percentage of enzyme inhibition was calculated as described for FhCL1 and FhCL3. We determined the IC50 value for C17 against HsCL by incubating the enzyme with four different concentrations of the compound 0, 10, 25, and 50 μM and measuring the activity as described before. We plotted initial rates (RFU/s) versus log10 of inhibitor concentration and obtained the IC50 value by fitting the data to a sigmoid curve.

FhCL3 = FhCL3 inhibition screening, IC50 and slow-binding (fluorogenic substrate Tos-GPR-AMC); assay type: biochemical, Fasciola hepatica; conditions: 10 µM compound, 20 min preincubation, relative to enzyme alone; SD less than 10%
Description: as §1, §2

F. hepatica NEJ = experiment: In vitro culture of NEJ and treatment with inhibitors (motility score); assay type: cell-based, Fasciola hepatica; conditions: 50 μM compound, over 96 h
Description: F. hepatica metacercariae were acquired from Instituto Miguel C. Rubino (DILAVE, MGAP, Uruguay). NEJ were obtained by in vitro excystement as previously described with minor modifications. Briefly, metacercariae were incubated with 1% sodium hypochlorite for 5 min at room temperature to remove the outer cyst wall and then washed several times with PBS. Metacercariae activation was carried out in a medium prepared by mixing equal volumes of solution A (0.4% sodium taurocholate, 120 mM NaHCO3, 140 mM NaCl, pH 8.0) and solution B (50 mM HCl and 33 mM L-cysteine), and incubating at 39 °C until the NEJ begin to emerge (around 3–4 h). A 100 μm filter was used to retain the cyst wall. Collected NEJ were washed three times with RPMI-1640 supplemented with 200 U/mL Penicillin G sulfate, […] streptomycin sulfate, 500 ng/mL amphotericin B, 10 mM HEPES, counted and divided into groups of around 20 parasites that were transferred to 96 wells in tissue culture plates. Parasites were maintained at 37 °C, 5% CO2 in modified Basch’s medium. At day 1, each tested compound was added at a concentration of 50 μM in 0.5% DMSO. Also, 0.5% of DMSO was added to the control groups. Each condition was tested in duplicate. NEJ behavior was monitored under a light microscope (Olympus BX41, Hamburg, Germany), every day each well was recorded for a minute in order to assess parasite motility and registered using the following score: 3—normally active; 2—reduced activity (sporadic movement); 1—immotile (dead, adapted from). Control parasites were maintained in culture for seven days.

T1 sequence (Q7JNQ9 entry or part of it): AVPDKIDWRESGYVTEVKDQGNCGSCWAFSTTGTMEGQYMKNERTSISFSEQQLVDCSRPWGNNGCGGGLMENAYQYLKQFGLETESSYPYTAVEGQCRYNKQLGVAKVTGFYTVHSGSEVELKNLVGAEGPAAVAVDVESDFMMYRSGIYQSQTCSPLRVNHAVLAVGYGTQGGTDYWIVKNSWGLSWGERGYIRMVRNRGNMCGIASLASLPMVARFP

Row | SMILES | inhibition at 10 µM (FhCL1) [%] | %Inh FhCL3 (FhCL3) [%] | Effect on NEJ motility / fasciolicide activity in vitro (F. hepatica NEJ)
1 | Cc1c[n+]([O-])c2ccccc2[n+]1[O-] [Compound C1] | 1 | 8 | –
2 | O=Cc1c[n+]([O-])c2ccccc2[n+]1[O-] [Compound C2] | 21 | 0 | –
3 | N#Cc1c(N)[n+]([O-])c2ccccc2[n+]1[O-] [Compound C3] | 30 | 0 | –
4 | COC(=O)N/N=C/c1ccc2c(c1)[n+]([O-])c(C#N)c(N)[n+]2[O-] [Compound C4] | 0 | 27 | –
5 | C=CCNC(=S)N/N=C/c1ccc2c(c1)[n+]([O-])c(C#N)c(N)[n+]2[O-] [Compound C5] | 20 | 39 | –
6 | CCCCNC(=O)N/N=C/c1ccc2c(c1)[n+]([O-])c(C#N)c(N)[n+]2[O-] [Compound C6] | 59 | 27 | did not have activity against the parasites
7 | CCN(C/C=C/c1ccccc1)c1ccc2c(c1)[n+]([O-])c(C#N)c(N)[n+]2[O-] [Compound C8] | 24 | 45 | –
8 | N#Cc1c(N)[n+]([O-])c2cc(Cl)c(Cl)cc2[n+]1[O-] [Compound C9] | 15 | 0 | –
9 | COC(=O)N/N=C/c1ccc2c(c1)[n+]([O-])c(C)c(C)[n+]2[O-] [Compound C10] | 13 | 3 | –
10 | Cc1c(C)[n+]([O-])c2cc(/C=N/NC(=O)NCCc3ccccc3)ccc2[n+]1[O-] [Compound C11] | 56 | 32 | did not have activity against the parasites
11 | C=CCN1C(=O)CS/C1=N/N=C/c1ccc2c(c1)[n+]([O-])c(C)c(C)[n+]2[O-] [Compound C12] | 0 | 22 | –
12 | C=CCn1c(-c2ccc(Cl)cc2)csc1=NN=Cc1ccc2c(c1)[n+]([O-])c(C)c(C)[n+]2[O-] [Compound C13] | 34 | 2 | –
13 | CCOC(=O)c1c(C)[n+]([O-])c2ccccc2[n+]1[O-] [Compound C14] | 28 | 5 | –
14 | C=CCNC(=S)N/N=C/c1ccc2c(c1)[n+]([O-])c(C(=O)OCC)c(C)[n+]2[O-] [Compound C15] | 38 | 58 | did not have activity against the parasites
15 | Cc1c(Sc2ccccc2)[n+]([O-])c2cc(Cl)c(Cl)cc2[n+]1[O-] [Compound C16] | 35 | 22 | –
16 | CCOC(=O)c1c(-c2ccccc2)[n+]([O-])c2cc(Cl)c(Cl)cc2[n+]1[O-] [Compound C19] | 54 | 35 | progressive decrease of parasite motility starting between 24 and 96 h of culture; also recorded: strong fasciolicide activity in vitro
17 | C=CCNC(=S)N/N=C/c1ccc2c(c1)[n+]([O-])c(C(=O)Nc1ccccc1)c(C)[n+]2[O-] [Compound C20] | 72 | 0 | –
18 | CCN(C/C=C/c1ccccc1)c1ccc2c(c1)[n+]([O-])c(C(=O)Nc1ccccc1)c(C)[n+]2[O-] [Compound C21] | 47 | 54 | progressive decrease of parasite motility starting between 24 and 96 h of culture
19 | Cc1c(C(=O)Nc2ccccc2)[n+]([O-])c2cc(CN3CCN(C/C=C/c4ccccc4)CC3)ccc2[n+]1[O-] [Compound C22] | 23 | 49 | –
20 | Cc1c(C(=O)NCc2ccccc2)[n+]([O-])c2ccccc2[n+]1[O-] [Compound C25] | 47 | 40 | –
21 | Cc1c(C(=O)c2ccccc2)[n+]([O-])c2cc(F)c(F)cc2[n+]1[O-] [Compound C26] | 41 | 17 | –
22 | O=C(c1ccccc1)c1c(C(F)(F)F)[n+]([O-])c2ccccc2[n+]1[O-] [Compound C27] | 38 | 22 | –
23 | O=C(c1ccccc1)c1c(C(F)(F)F)[n+]([O-])c2cc(F)c(F)cc2[n+]1[O-] [Compound C28] | 0 | 38 | –
